Experimental data from patent US6989397B1, “Iron chelators and uses thereof” (University of Queensland, priority 1999, dated 2006).
Where “and” joins values, the source holds several entries; their conditions need not be identical. Equal values may be shown once. Read-outs that look alike come from different tables or passages of the source.

Tests used:
[1] = test system: SK-N-MC neuroepithelioma cells; test: internalized 59Fe uptake from 59Fe-transferrin; format: cell-based, human; details: for Internalised Iron Uptake (% Control) / 59Fe uptake from 59Fe-Tf, % of the control value (FIG. 2B): SK-N-MC, chelators 50 μM, DFO 100 μM; for Internalised Iron Uptake (% Control): 59Fe-transferrin 0.75 μM, 3 h at 37° C., mean±SD; for 59Fe uptake from 59Fe-Tf, % of the control value (FIG. 2B): 3 hrs at 37° C., FIG. 2B screening experiment
Protocol: The effect of chelators on ^59Fe uptake from ^59Fe-Tf and ^59Fe release from prelabelled cells was studied using standard procedures reported previously (Richardson et al., 1994, J. Lab Clin. Med. 124 660-71). The amount of ^59Fe internalized by the cells was measured by incubation with the general protease pronase (1 mg/ml) for 30 min at 4° C. to remove membrane-bound ^59Fe and Tf (Richardson et al., 1990; Baker et al., 1998, Biochim. Biophys. Acta 1380 21-30). […] To determine the ability of the chelators to inhibit ^59Fe uptake from ^59Fe-Tf (0.75 μM). […] Table 2. The effect of DFO, 311, […], or PCBHH on internalized ^59Fe uptake from ^59Fe-transferrin by BE-2 neuroblastoma cells, SK-N-MC neuroepithelioma cells, and SK-Mel-28 melanoma cells. Cells were incubated with the chelators and ^59Fe-transferrin (0.75 μM) for 3 h at 37° C., washed, and incubated for 30 min at 4° C. with pronase (1 mg/ml) to separate the internalized from the membrane-bound ^59Fe. All chelators were screened at a concentration of 50 μM except for DFO which was examined at 100 μM. Results are mean±SD (three determinations) from a typical experiment.

[2] = test system: BE-2 neuroblastoma cells; test: internalized 59Fe uptake from 59Fe-transferrin; format: cell-based; details: 59Fe-transferrin 0.75 μM, 3 h at 37° C., chelators 50 μM, DFO 100 μM, mean±SD
Protocol: (§1) The effect of chelators on ^59Fe uptake from ^59Fe-Tf and ^59Fe release from prelabelled cells was studied using standard procedures reported previously (Richardson et al., 1994, J. Lab Clin. Med. 124 660–71). The amount of ^59Fe internalized by the cells was measured by incubation with the general protease pronase (1 mg/ml) for 30 min at 4° C. to remove membrane-bound ^59Fe and Tf (Richardson et al., 1990; Baker et al., 1998, Biochim. Biophys. Acta 1380 21–30).
Table 2. The effect of DFO, 311, PCTH, PCBH, or PCBHH on internalized ^59Fe uptake from ^59Fe-transferrin by BE-2 neuroblastoma cells, SK-N-MC neuroepithelioma cells, and SK-Mel-28 melanoma cells. Cells were incubated with the chelators and ^59Fe-transferrin (0.75 μM) for 3 h at 37° C., washed, and incubated for 30 min at 4° C. with pronase (1 mg/ml) to separate the internalized from the membrane-bound ^59Fe. All chelators were screened at a concentration of 50 μM except for DFO which was examined at 100 μM. Results are mean±SD (three determinations) from a typical experiment.

[3] = test system: SK-N-MC neuroepithelioma cells; test: cellular proliferation, MTT assay; format: cell-based, human; details: 90 h incubation, chelators 0.39–50 μM, read-out: IC50, inhibition of growth of SK-N-MC cells
Protocol: FIG. 4. The effect of chelator concentration on the proliferation of SK-N-MC neuroepithelioma cells. Cells were incubated in the presence and absence of the chelators (0–50 μM) for 90 h at 37° C. After this incubation period, cellular density was measured via the MTT assay. Each data point represents the mean of four replicates in a typical experiment of two experiments performed.
The effects of the chelators on the proliferation of SK-N-MC neuroepithelioma cells were examined using the MTT (3-(4,5-dimethylthiazol-2-yl)-2,5-diphenyltetrazolium) assay by essentially the same method as described previously (Richardson et al., 1995). Cellular proliferation was examined by seeding cells in 96-well microtitre plates at 15,000 cells/well in 0.1 mL of complete medium containing human diferric Tf (1.25 μM). […] The cells were allowed to grow overnight and the chelators were then added in 0.1 mL of complete medium containing differic transferrin (1.25 μM). The final concentrations of the chelators were 0.39–50 μM. Control samples contained complete medium and diferric Tf (1.25 μM). Cells were incubated with the chelators for 90 hrs at 37° C. in a humidified atmosphere containing 95% air and 5% CO2. After this incubation, 0.01 mL of MTT was added to each well and the plates incubated for 2 hrs at 37° C. The cells were solubilized by adding 0.1 mL of 10% SDS-50% isobutanol in 0.01 M HCl and the plates were read at 570 nm on a scanning multiwell spectrophotometer (Titertek Multiscan; Beckman Instruments Inc., California). As shown previously for the SK-N-MC cell line, MTT colour formation was directly proportional to the number of viable cells (Richardson et al., 1995).

[4] = test system: BE-2 neuroblastoma cells; test: 59Fe release from prelabelled cells (iron efflux); format: cell-based; details: labelled 3 h with 59Fe-transferrin 0.75 μM, reincubated 3 h at 37° C., chelators 50 μM, DFO 100 μM, Mean±SD
Protocol: as §1
(§2) Table 1. The effect of DFO, 311, PCTH, PCBH, or PCBHH on ^59Fe release from BE-2 neuroblastoma cells, SK-N-MC neuroepithelioma cells, and SK-Mel-28 melanoma cells. Cells were labeled for 3 h at 37° C. with ^59Fe-transferrin (0.75 μM), washed, and then reincubated with the chelators for 3 h at 37° C. […] Results are Mean±SD of three determinations in a typical experiment.

[5] = test system: SK-Mel-28 melanoma cells; test: 59Fe release from prelabelled cells (iron efflux); format: cell-based, human; details: labelled 3 h with 59Fe-transferrin 0.75 μM, reincubated 3 h at 37° C., chelators 50 μM, DFO 100 μM, Mean±SD
Protocol: as §1, §2

IC50 [3] | Structure (SMILES) | 59Fe uptake from 59Fe-Tf, % of the control, range over all 3 cell lines ([1]; BE-2, SK-N-MC and SK-Mel-28 cell lines together, 3 hr, 50 μM, Table 2) | Internalised Iron Uptake (% Control) [1] | Internalised Iron Uptake (% Control) [2] | % Cellular Iron Released [4] | % Cellular Iron Released [5] | 59Fe uptake from 59Fe-Tf, % of the control value (FIG. 2B) [1] | IC50 ([3]; Homo sapiens, SK-N-MC)
2 µM | O=C(NN=Cc1c(O)ccc2ccccc12)c1ccncc1 [Chelator 311, 2-hydroxy-1-naphthylaldehyde isonicotinoyl hydrazone, reference compound] | 8–10 % of the control | 10 ± 4 % Control | 8 ± 1 % Control | 52 ± 1% | 70 ± 1% |  | 
 | CC(=O)N(O)CCCCCNC(=O)CCC(=O)N(O)CCCCCNC(=O)CCC(=O)N(O)CCCCCN [DFO, desferrioxamine, reference compound] |  | 100 % Control and 100 ± 6 % Control | 42 % Control and 42 ± 3 % Control | 44 ± 2% | 27 ± 1% | 91 % of the control | 47 µM
 | O=C(NN=Cc1ccco1)c1ccncc1 [FIH, 2furoylcarboxaldehyde isonicotinoyl hydrazone] |  |  |  |  |  | no effect | 
50 µM | O=C(NN=Cc1ccccn1)c1ccccc1 [PCBH, 2-pyridylcarboxaldehyde benzoyl hydrazone] |  | 20 ± 2 % Control | 25 ± 4 % Control | 44 ± 1% | 54 ± 4% |  | 
 | O=C(NN=Cc1ccccn1)c1cccs1 [PCTH, 2-pyridylcarboxaldehyde 2-thiophenecarboxyl hydrazone] |  | 16 ± 1 % Control | 25 ± 3 % Control | 50 ± 1% | 57 ± 6% |  | 
